The values below come from patent publication US8119589B2, “Modulation of CD4+ T cell responses by a tick saliva protein, Salp15 and polypeptides derived therefrom” (University of North Carolina at Charlotte, priority 2004, dated 2012).

One experiment relates to Jurkat cells. Description: Actin polymerization (phalloidin488 staining, F-actin immunoblot) in activated Jurkat cells. The format is cell-based, human. The conditions noted are these: Salp15 pretreatment. As to the method: For the visualization of lipid rafts, phospho-tyrosine, and cytoskeleton reorganization, CD4^+, CD8^+ or Jurkat cells were cytospun for 10 minutes at 1000 RPM onto positively charged microslides (Fisher Scientific, Hampton, N.H., U.S.A.). The cells were fixed with 3.7% paraformaldehyde (Sigma Chemical Co.) for 15 minutes and stained with CTB594 (Molecular Probes, Eugene, Oreg., U.S.A.), AlexaFluor488 labeled phalloidin (Molecular Probes) or (1:50) biotin-conjugated anti-p-Tyr (PY99) followed by Streptavidin-AlexaFluor594 (1:100, Molecular Probes). For p-LAT and p-PLCγ1 staining, fixed cells were treated with PBS containing 0.1% Triton-X 100 and 100 mM glycine for 15 min at room temperature and stained using rabbit p-LAT (Tyr^191) or rabbit anti-p-PLCγ1 (Tyr^783) probed with anti-rabbit IgG488 (Molecular Probes).
The amount of F-actin in activated CD4+ T cells in the presence and absence of Salp15 was quantified by ultracentrifugation and Western blotting. CD4^+ T cells were activated as described above for 2 min. Cells were lysed in HEPES buffer containing Triton X-100 (10 mM NaCl, 135 mM KCl, 2 mM MgCl2, 2 mM EGTA, 10 mM HEPES pH 7.15, 1% Triton X-100, 0.01 mg/ml aprotinin, 0.01 mg/ml leupeptin, 1 mM PMSF). […] Equal amounts of total protein were loaded on the SDS-gel based on the total actin determined from a sample of the cell lysate.
A general note: Immunoblotting shows a protein as a band on a membrane.

Another experiment has as its system CD4+ T cells. Description: Salp15488 binding on cell surface by confocal microscopy. Details: species or system mouse. As to the method: For colocalization experiments, Jurkat and CD4^+ T cells were cytospun as described herein. HeLa and HeLa-CD4 cells were grown on chamber slides. The cells were fixed and stained with anti-CD4 and Salp15 as follows. Purified Salp15 was labeled using Alexa-488 with the Protein Labeling Kit (Molecular Probes) according to the manufacturer's instructions. Fixed cells were blocked with 5% normal serum and anti-CD16/CD32 (1:100) in PBS, incubated with 1 μg of monoclonal biotinylated anti-CD4 (L3T4) (BD Biosciences Pharmingen) followed by streptavidin594 staining. The cells were then stained with 20 μg/mL of Salp15488. For competition assays, cells were first blocked with 5% normal serum, incubated with either polyclonal anti-CD4 antibody, MT310, OKT4, normal rabbit IgG, Salp15 (0.5 mg/mL) or lysozyme (0.5 mg/mL) followed by staining with Salp15488. All samples were mounted in a GVA Mount (Zymed, San Francisco, Calif., U.S.A.) and visualized with an Olympus Confocal microscope equipped with Fluoview 3.0 software.

For experiment [1], the target named is T1, sCD4 D1-D4 (Homo sapiens, UniProt P01730).
T1 construct: a sCD4 preparation that contains all four extracellular domains (D1-D4)
Description: Microtiter binding assay with immobilized sCD4 D1-D4. The conditions noted are these: Salp15 0.4 μM; similar kinetics to D1-D2. How it is done:
(§1) Purified sCD4 was coated overnight at 4° C. at the indicated concentrations in 0.1M sodium carbonate buffer (pH 9.5) in 96 well plates. Equimolar amounts of lysozyme were used as a non-specific control. The wells were washed, blocked with 10% FCS/PBS for 1 hr at R.T., and incubated with Salp15 (0.4 μM) for 2 hr at 37° C. Salp15 binding was detected by incubation with horseradish peroxidase (HRP)-conjugated anti-His antibody for 1 hr followed by microwell peroxidase substrate (KPL). The reaction was stopped by adding TMB stop solution (KPL). Chemically synthesized overlapping peptides of Salp15 were purchased from GenScript Corporation (Piscataway, N.J., U.S.A). To study the binding of Salp15 and peptides to sCD4, Salp15 (5 μg) and different peptides (0.5 μg) were coated. The wells were washed and blocked prior to incubation with sCD4-HRP (Research Diagnostics Inc., Flanders, N.J., U.S.A.). For competition assays, indicated concentrations of Salp15 or P11 were added to sCD4-HRP and incubated with plate bound P11 (0.1 μg). To estimate the effect of dithiothreitol (DTT) treatment of Salp15 on binding to sCD4, 0.5 μM Salp15 was treated with 10 mM DTT overnight and immobilized onto microtiter plate followed by blocking and incubation with sCD4-HRP.

The target of experiment [2] is T1, sCD4 D1-D4. Description: Analytical gel filtration and native gel electrophoresis of Salp15-sCD4. The conditions noted are these: native PAGE and Western blot. The format is binding. How it is done:
Purified sCD4 (D1-D4, 10 μg) and Salp15 (20 μg) were eluted through two SUPERDEX-200™ HR 10/30 gel filtration columns (Amersham Pharmacia Biotech, Piscataway, N.J., U.S.A.) connected in tandem using PBS as equilibration and elution buffer at a flow rate of 0.3 mL/min using an FPLC system (Amersham Pharmacia Biotech) equipped with a liquid chromatography controller LCC-501 Plus and regulated using FPLC director V1.10. To get the elution profile of the Salp15-CD4 complex, Salp15 was incubated with sCD4 before passing it through the gel filtration column. Blue dextran was used to estimate the void volume of the columns, while BSA, ovalbumin and lysozyme were used as molecular weight standards with elution volumes of 14.78 mL, 26.45 mL, 28.45 mL and 39.28 mL, respectively.
Purified sCD4 (D1-D4, 10 μg), Salp15 (10 μg) and sCD4 (10 μg)+Salp15 (10 μg) were diluted into 50% glycerol, 40 mM HEPES (pH 6.5) and 50 mM imidazole (pH 6.5). The native gel [5% Acrylamide:Bis (29:1), 40 mM HEPES (pH 6.5), 50 mM imidazole (pH 6.5) and 10% glycerol] electrophoresis was performed using a 40 mM HEPES (pH 6.5) running buffer and 50 mM imidazole (pH 6.5) at 8 mAmps for 1.5 hours at 4° C. The gel was stained with coomassie blue or transferred to IMMOBILON P® (Millipore) blotting paper for immunoblotting with anti-Poly His-HRP and anti-CD4.
(In general: Size exclusion chromatography separates by hydrodynamic size, large species first.)

The target of the next experiment is T2, sCD4 (Homo sapiens, UniProt P01730).
T2 construct: the extracellular four domains of CD4 (sCD4); purchased Research Diagnostics Inc., Flanders, N.J., U.S.A
Description: Competition for sCD4-HRP binding to plate-bound P11. As to the method: as §1

The subject of another experiment is AP-1 DNA binding. Conditions: Anguita et al., 2002; cited from earlier work.

As for “Salp15: secreted salivary protein from Ixodes scapularis, SEQ ID NO: 2; recombinant His-tagged, produced in Drosophila S2 cells”, the “Phalloidin488 staining / amount of F-actin” value with Jurkat cells is recorded as “reduced”. In addition, in the experiment with CD4+ T cells, the “Binding to CD4+ T cells” value is on record as “bind specifically”. Besides, the “Binding to sCD4 D1-D4” value in the experiment with sCD4 D1-D4 [1] was “saturable binding”. In addition, the “Migration with sCD4 (D1-D4) in native gel” value with sCD4 D1-D4 [2] is reported as “co-migrated”. In addition, in the experiment with sCD4, the “Competition of P11 binding to sCD4 by increasing concentrations of Salp15” value is “could also be competed”. The “AP-1 DNA binding activation” value with AP-1 DNA binding is given as “does not affect”.
